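Values below derive from 48-hour exposures of cells grown in 96-well plates, with endpoints linearly interpolated between the two concentrations bracketing the appropriate inhibition level. TGI marks complete inhibition of growth.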
Experiments:
Assay in all cases: NCI anticancer screen, dose series, 48 h
CCRF-CEM leukemia = tested on: CCRF-CEM leukemia
MDA-MB-231 breast = tested on: MDA-MB-231 breast
ACHN renal = tested on: ACHN renal
NCI-H226 lung = tested on: NCI-H226 lung
MDA-N = tested on: MDA-N
SNB-75 CNS = tested on: SNB-75 CNS
COLO 205 colon = tested on: COLO 205 colon
MDA-MB-435 = tested on: MDA-MB-435
MOLT-4 leukemia = tested on: MOLT-4 leukemia
UO-31 renal = tested on: UO-31 renal
NCI-H460 lung = tested on: NCI-H460 lung
HOP-92 NSCLC = tested on: HOP-92 NSCLC
SNB-19 CNS = tested on: SNB-19 CNS
SR leukemia = tested on: SR leukemia
SK-OV-3 ovarian = tested on: SK-OV-3 ovarian
HCC-2998 colon = tested on: HCC-2998 colon
HCT-15 colon = tested on: HCT-15 colon
HT29 colon = tested on: HT29 colon
PC-3 prostate = tested on: PC-3 prostate
SK-MEL-28 melanoma = tested on: SK-MEL-28 melanoma
UACC-257 melanoma = tested on: UACC-257 melanoma
K-562 leukemia = tested on: K-562 leukemia
SW-620 colon = tested on: SW-620 colon
KM12 colon = tested on: KM12 colon
LOX IMVI melanoma = tested on: LOX IMVI melanoma
SF-295 CNS = tested on: SF-295 CNS
A549 NSCLC = tested on: A549 NSCLC
NCI/ADR-RES ovarian = tested on: NCI/ADR-RES ovarian
HCT-116 colon = tested on: HCT-116 colon
SK-MEL-5 melanoma = tested on: SK-MEL-5 melanoma
DU-145 prostate = tested on: DU-145 prostate
U251 CNS = tested on: U251 CNS
OVCAR-8 ovarian = tested on: OVCAR-8 ovarian
RXF 393 renal = tested on: RXF 393 renal
NCI-H522 lung = tested on: NCI-H522 lung
HS 578T breast = tested on: HS 578T breast
SF-268 CNS = tested on: SF-268 CNS
SN12C renal = tested on: SN12C renal
MCF7 breast = tested on: MCF7 breast
TK-10 renal = tested on: TK-10 renal
A498 renal = tested on: A498 renal
NCI-H23 lung = tested on: NCI-H23 lung
HL-60(TB) leukemia = tested on: HL-60(TB) leukemia
BT-549 breast = tested on: BT-549 breast
OVCAR-5 ovarian = tested on: OVCAR-5 ovarian
SF-539 CNS = tested on: SF-539 CNS
UACC-62 melanoma = tested on: UACC-62 melanoma
T-47D breast = tested on: T-47D breast
OVCAR-3 ovarian = tested on: OVCAR-3 ovarian
M14 melanoma = tested on: M14 melanoma
MALME-3M melanoma = tested on: MALME-3M melanoma
HOP-62 NSCLC = tested on: HOP-62 NSCLC
EKVX NSCLC = tested on: EKVX NSCLC
RPMI-8226 leukemia = tested on: RPMI-8226 leukemia
786-0 renal = tested on: 786-0 renal
SK-MEL-2 melanoma = tested on: SK-MEL-2 melanoma
IGROV1 ovarian = tested on: IGROV1 ovarian
CAKI-1 renal = tested on: CAKI-1 renal
OVCAR-4 ovarian = tested on: OVCAR-4 ovarian

CCOC(=O)C1CSCCSC1
TGI (CCRF-CEM leukemia): > 100 µM
TGI (MDA-MB-231 breast): > 100 µM
TGI (ACHN renal): > 100 µM
TGI (NCI-H226 lung): > 100 µM
TGI (MDA-N): > 100 µM
TGI (SNB-75 CNS): > 100 µM
TGI (COLO 205 colon): > 100 µM
TGI (MDA-MB-435): > 100 µM
TGI (MOLT-4 leukemia): > 100 µM
TGI (UO-31 renal): > 100 µM
TGI (NCI-H460 lung): 57.6 µM
TGI (HOP-92 NSCLC): > 100 µM
TGI (SNB-19 CNS): > 100 µM
TGI (SR leukemia): > 100 µM
TGI (SK-OV-3 ovarian): > 100 µM
TGI (HCC-2998 colon): > 100 µM
TGI (HCT-15 colon): > 100 µM
TGI (HT29 colon): > 100 µM
TGI (PC-3 prostate): > 100 µM
TGI (SK-MEL-28 melanoma): > 100 µM
TGI (UACC-257 melanoma): > 100 µM
TGI (K-562 leukemia): > 100 µM
TGI (SW-620 colon): > 100 µM
TGI (KM12 colon): > 100 µM
TGI (LOX IMVI melanoma): > 100 µM
TGI (SF-295 CNS): > 100 µM
TGI (A549 NSCLC): > 100 µM
TGI (NCI/ADR-RES ovarian): > 100 µM
TGI (HCT-116 colon): > 100 µM
TGI (SK-MEL-5 melanoma): > 100 µM
TGI (DU-145 prostate): > 100 µM
TGI (U251 CNS): > 100 µM
TGI (OVCAR-8 ovarian): > 100 µM
TGI (RXF 393 renal): > 100 µM
TGI (NCI-H522 lung): > 100 µM
TGI (HS 578T breast): > 100 µM
TGI (SF-268 CNS): > 100 µM
TGI (SN12C renal): > 100 µM
TGI (MCF7 breast): > 100 µM
TGI (TK-10 renal): > 100 µM
TGI (A498 renal): > 100 µM
TGI (NCI-H23 lung): > 100 µM

COc1ccc2nccc(/C=C/c3ccc(N(C)C)cc3)c2c1
TGI (HL-60(TB) leukemia): > 10 µM
TGI (BT-549 breast): > 10 µM
TGI (CCRF-CEM leukemia): > 10 µM
TGI (MDA-MB-231 breast): > 10 µM
TGI (ACHN renal): > 10 µM
TGI (NCI-H226 lung): > 10 µM
TGI (MDA-N): > 10 µM
TGI (OVCAR-5 ovarian): > 10 µM
TGI (SF-539 CNS): > 10 µM
TGI (UACC-62 melanoma): > 10 µM
TGI (SNB-75 CNS): > 10 µM
TGI (COLO 205 colon): > 10 µM
TGI (MDA-MB-435): 7.49 µM
TGI (MOLT-4 leukemia): > 10 µM
TGI (T-47D breast): > 10 µM
TGI (UO-31 renal): > 10 µM
TGI (OVCAR-3 ovarian): > 10 µM
TGI (NCI-H460 lung): > 10 µM
TGI (HOP-92 NSCLC): > 10 µM
TGI (M14 melanoma): > 10 µM
TGI (MALME-3M melanoma): > 10 µM
TGI (HOP-62 NSCLC): > 10 µM
TGI (SNB-19 CNS): > 10 µM
TGI (EKVX NSCLC): > 10 µM
TGI (RPMI-8226 leukemia): > 10 µM
TGI (SK-OV-3 ovarian): > 10 µM
TGI (HCC-2998 colon): > 10 µM
TGI (HCT-15 colon): > 10 µM
TGI (HT29 colon): > 10 µM
TGI (PC-3 prostate): > 10 µM
TGI (SK-MEL-28 melanoma): > 10 µM
TGI (UACC-257 melanoma): > 10 µM
TGI (K-562 leukemia): > 10 µM
TGI (SW-620 colon): > 10 µM
TGI (KM12 colon): > 10 µM
TGI (LOX IMVI melanoma): > 10 µM
TGI (SF-295 CNS): > 10 µM
TGI (A549 NSCLC): > 10 µM
TGI (NCI/ADR-RES ovarian): > 10 µM
TGI (HCT-116 colon): > 10 µM
TGI (786-0 renal): > 10 µM
TGI (SK-MEL-5 melanoma): > 10 µM
TGI (DU-145 prostate): > 10 µM
TGI (U251 CNS): > 10 µM
TGI (OVCAR-8 ovarian): > 10 µM
TGI (RXF 393 renal): > 10 µM
TGI (NCI-H522 lung): > 10 µM
TGI (HS 578T breast): > 10 µM
TGI (SF-268 CNS): > 10 µM
TGI (SN12C renal): > 10 µM
TGI (SK-MEL-2 melanoma): > 10 µM
TGI (IGROV1 ovarian): > 10 µM
TGI (MCF7 breast): > 10 µM
TGI (TK-10 renal): > 10 µM
TGI (CAKI-1 renal): > 10 µM
TGI (A498 renal): > 10 µM
TGI (NCI-H23 lung): > 10 µM
TGI (OVCAR-4 ovarian): > 10 µM

COC(=O)C1=C(OC(=O)/C(=C/c2ccccc2)c2ccc([N+](=O)[O-])cc2)C(C(=O)OC)[C@@]2(O)[C@@H](C(=O)OC)[C@H](C)C[C@@H]1[C@@H]2C(=O)OC (stereo partly drawn)
TGI (HL-60(TB) leukemia): > 100 µM
TGI (BT-549 breast): > 100 µM
TGI (CCRF-CEM leukemia): > 100 µM
TGI (MDA-MB-231 breast): > 100 µM
TGI (ACHN renal): > 100 µM
TGI (NCI-H226 lung): > 100 µM
TGI (MDA-N): > 100 µM
TGI (OVCAR-5 ovarian): > 100 µM
TGI (SF-539 CNS): > 100 µM
TGI (UACC-62 melanoma): > 100 µM
TGI (SNB-75 CNS): > 100 µM
TGI (COLO 205 colon): > 100 µM
TGI (MDA-MB-435): > 100 µM
TGI (MOLT-4 leukemia): > 100 µM
TGI (T-47D breast): > 100 µM
TGI (UO-31 renal): > 100 µM
TGI (OVCAR-3 ovarian): > 100 µM
TGI (NCI-H460 lung): > 100 µM
TGI (HOP-92 NSCLC): > 100 µM
TGI (M14 melanoma): > 100 µM
TGI (MALME-3M melanoma): > 100 µM
TGI (HOP-62 NSCLC): > 100 µM
TGI (SNB-19 CNS): > 100 µM
TGI (EKVX NSCLC): > 100 µM
TGI (RPMI-8226 leukemia): > 100 µM
TGI (SK-OV-3 ovarian): > 100 µM
TGI (HCC-2998 colon): > 100 µM
TGI (HCT-15 colon): > 100 µM
TGI (HT29 colon): > 100 µM
TGI (PC-3 prostate): > 100 µM
TGI (SK-MEL-28 melanoma): > 100 µM
TGI (UACC-257 melanoma): > 100 µM
TGI (K-562 leukemia): > 100 µM
TGI (SW-620 colon): > 100 µM
TGI (KM12 colon): > 100 µM
TGI (LOX IMVI melanoma): > 100 µM
TGI (SF-295 CNS): > 100 µM
TGI (A549 NSCLC): > 100 µM
TGI (NCI/ADR-RES ovarian): > 100 µM
TGI (HCT-116 colon): > 100 µM
TGI (786-0 renal): > 100 µM
TGI (SK-MEL-5 melanoma): > 100 µM
TGI (DU-145 prostate): > 100 µM
TGI (U251 CNS): > 100 µM
TGI (OVCAR-8 ovarian): > 100 µM
TGI (RXF 393 renal): > 100 µM
TGI (NCI-H522 lung): > 100 µM
TGI (HS 578T breast): > 100 µM
TGI (SF-268 CNS): > 100 µM
TGI (SN12C renal): > 100 µM
TGI (SK-MEL-2 melanoma): > 100 µM
TGI (IGROV1 ovarian): > 100 µM
TGI (MCF7 breast): > 100 µM
TGI (TK-10 renal): > 100 µM
TGI (CAKI-1 renal): > 100 µM
TGI (A498 renal): > 100 µM
TGI (NCI-H23 lung): > 100 µM
TGI (OVCAR-4 ovarian): > 100 µM
